Results taken from patent US20230107216A1, “PANTETHEINE DERIVATIVES AND USES THEREOF” (Comet Therapeutics, Inc., priority 2018, published 2023).
Where two headings read alike, the source gives them in different places.

Tests used:
[1] = system: Very long-chain acyl-CoA dehydrogenase (VLCAD) primary fibroblasts GM17475; assay: Total NAD+ + NADH and NAD+ (NAD/NADH-Glo), VLCAD fibroblasts GM17475; format: cell-based; details: Homo sapiens, Fibroblast, VLCAD GM17475 P10, assay condition A, 24h, read-out: Increase in Total NAD+ + NADH
Method: Primary adherent fibroblasts were cultured in minimum essential medium (MEM) (Gibco, 25030081) supplemented with 2 mM L-Glutamine (Gibco, 25030081), 15% fetal bovine serum (FBS) (Gibco, 26400044) and 1% penicillin/streptomycin (Gibco, 5140122) at 37° C. and 5% CO2. Cells were collected for either passaging or experiment at ˜70-80% confluence. Cells were obtained by trypsinization and seeded in cell culture microplates either white plate (Thermo Fisher Scientific, 152028) for luminescent measurement or black plate (Thermo Fisher Scientific, 165305) for fluorescent based read out for different assays listed below. Cells were obtained by trypsinization and […] were seeded and allowed to adhere for 16-18 hours to have confluency around 70-80% in the cell well with culture media. After 24 hours prior to measurements (37° C., 5% CO2) media was changed to Dulbecco's Modified Eagle Medium (DMEM, Agilent Seahorse cat #103575-100) with the appropriate supplements as stated below.
Primary fibroblasts assayed were Propionic Acidemia (PA) (GM03590 Coriell Institute for Medical Research, Tsi 6337 Trans-Hit Bio), Methylmalonic Acidemia (MMA) (Tsi 5224 Trans-Hit Bio), Subnormal activation of pyruvate dehydrogenase complex (PDH) (GM01503 Coriell Institute for Medical Research), Very long-chain acyl-CoA dehydrogenase (VLCAD) (GM17475), Leigh Syndrome (LS) (GM03672, GM13411 Coriell Institute for Medical Research), Pyruvate Carboxylase Deficiency (PC) (GM00444 Coriell Institute for Medical Research). 10 μM of Compounds were added for 2 hours in PA, MMA lines and for 24h for the other fibroblast lines.
Assay was performed according to manufacturer instructions (NAD/NADH-Glo Assay Promega, G9072). The NAD/NADH-Glo Assay is a bioluminescent assay for detecting total oxidized and reduced nicotinamide adenine dinucleotides (NAD+ and NADH, respectively) from which ratio of NAD/NADH can be calculated. Briefly, for every assay a 12-point standard curve was prepared ranging from 400 nM to 0.625 nM. Media was removed and replaced with 50 μl of PBS for both assays.
For individual NAD+ and NADH measurement, 50 μl of 1% DTAB (Sigma Cat #D5047) (cell lysis reagent) in 0.2N NaOH was added to the plate and a total 100 μl of lysate was split into two plates with 50 μl each. 25 μl of 0.4N HCl were added to the NAD+ plate and both NAD+ and NADH plate were heated at 60° C. for 15 minutes. The acid and heat treatment destroyed NADH allowing individual NAD+ measurement while heating in basic conditions destroys NAD+ allowed individual NADH measurements. The plates were allowed to come to room temperature for 10 minutes and Trizma base (Sigma, T1699) was added to the NAD+ plate to neutralize the acid and HCl Trizma hydrochloride (Sigma, T2694) was added to the NADH plate. The NADNADH glo reagent was prepared by adding: 625 μl of NAD cycling substrate, 125 μl of reductase, 125 μl of reductase substrate, 125 μl NAD cycling enzyme to total of the 25 ml of NAD GLO reagent. 1:1 ratio of total volume of reagent was added to the individual NAD+, NADH measurement (total 100 μl) and 50 μl for total NAD/NAH measurement. Luminescence was read between 30-60 minutes within the linear range.
A total dead cell count was performed as described in Example 817 and only alive cells were used for analysis.

[2] = system: primary fibroblasts (healthy controls and PA, MMA, BCKDK, PDH, VLCAD, LS, PC, GA, VLCFA, KSS, FXN, HD); assay: Measurement of ROS (H2DCFDA) in primary fibroblasts; format: cell-based, human; details: Homo sapiens, procedure Example 812
Outline: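 Patient and healthy-control primary fibroblasts switched to supplemented DMEM 24 h before assay, then treated with compound (10 μM) plus H2DCFDA (22 μM) for 2 h (PA, MMA lines) or 24 h (other lines). Kinetic fluorescence at 492/527 nm over 60 min; only live cells analysed.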

HepG2 cells = assay: Glucose uptake (Glucose Uptake-Glo); format: cell-based; details: Homo sapiens, read-out: % increase in Glucose Uptake
[3] = system: Propionic Acidemia (PA) primary fibroblasts GM00371; assay: Mitochondrial respiration, XFe96 Extracellular Flux Analyzer (OCR/ECAR), PA fibroblasts GM00371; format: cell-based; details: Homo sapiens, Fibroblast
[4] = Fibroblast, PDH GM01503, Assay Condition C, read-out: Decreased ROS by at least 10%
[5] = FXN GM04078, Assay Condition C, read-out: Decreased ROS by at least 10%
[6] = FXN GM04078, Assay Condition C, read-out: Decreased ROS by at least 30%
[7] = assay condition C (10 mM glucose, 10% FBS), read-out: Increase in Maximal Respiratory Capacity AUC
[8] = Fibroblast, BCKD GM00612, Assay Condition A, read-out: Decreased ROS by at least 10%
[9] = Fibroblast, NPC1 GM22879, Assay Condition C, read-out: Decreased ROS by at least 30%
[10] = Fibroblast, VLCAD GM17475, Assay Condition C, read-out: Decreased ROS by at least 10%
[11] = Fibroblast, VLCAD GM17475, Assay Condition C, read-out: Decreased ROS by at least 30%
[12] = Fibroblast, BCKD GM00649, Assay Condition C, read-out: Decreased ROS by at least 30%
[13] = assay condition D (1 mM glucose, 10% FBS), read-out: Increase in Maximal Respiratory Capacity AUC

Structure (SMILES): C[C@@H](O)CC(=O)SCCNC(=O)CCNC(=O)[C@H](O)C(C)(C)CO [Compound 38, S-2-{3-[(R)-2,4-dihydroxy-3,3-dimethylbutyrylamino]propionylamino} ethyl (R)-3-hydroxybutanethioate]
- activation at 10 µM [1]: ≥ 10%
- inhibition at 10 µM [2, 4]: ≥ 10%
- inhibition at 10 µM ([2]; Fibroblast, PDH GM01503, Assay Condition C, read-out: Decreased ROS by at least 30%): ≥ 30%
- inhibition at 10 µM [2, 5]: ≥ 10%
- inhibition at 10 µM [2, 6]: ≥ 30%

Structure (SMILES): CC(O)C(C(=O)SCCNC(=O)CCNC(=O)[C@H](O)C(C)(C)CO)C(C)O (stereo partly drawn) [Compound 1285, (2R)-2,4-dihydroxy-N-[2-[(2-[[3-hydroxy-2-(1-hydroxyethyl)butanoyl]sulfanyl]ethyl)carbamoyl]ethyl]-3,3-dimethylbutanamide]
- activation at 10 µM (HepG2 cells): ≥ 30%
- activation at 50 µM [3, 7]: ≥ 10%
- activation at 10 µM [1]: ≥ 10%
- inhibition at 10 µM [2, 8]: ≥ 10%
- inhibition at 10 µM [2, 9]: ≥ 30%

Structure (SMILES): CC(O)CC(O)CC(O)CC(=O)SCCNC(=O)CCNC(=O)[C@H](O)C(C)(C)CO (stereo partly drawn) [Compound 401]
- activation at 10 µM [1]: ≥ 10%
- inhibition at 10 µM [2, 10]: ≥ 10%
- inhibition at 10 µM [2, 11]: ≥ 30%

Structure (SMILES): COC(=O)CCC(=O)SCCNC(=O)CCNC(=O)[C@H](OC(=O)CN)C(C)(C)CO [Compound 1294, methyl 4-[(2-[3-[(2R)-2-[(2-aminoacetyl)oxy]-4-hydroxy-3,3-dimethylbutanamido]propanamido]ethyl)sulfanyl]-4-oxobutanoate]
- activation at 10 µM (HepG2 cells): ≥ 30%
- activation at 10 µM ([3]; assay condition D (1 mM glucose, 10% FBS), read-out: Increase in Spare Capacity AUC): ≥ 30%

Structure (SMILES): CC(O)CC(O)CC(=O)SCCNC(=O)CCNC(=O)[C@H](O)C(C)(C)CO (stereo partly drawn) [Compound 400]
- activation at 10 µM [1]: ≥ 10%
- inhibition at 10 µM ([2]; Fibroblast, BCKD GM00649, Assay Condition C, read-out: Decreased ROS by at least 10%): ≥ 10%
- inhibition at 10 µM [2, 12]: ≥ 30%
- inhibition at 10 µM [2, 5]: ≥ 10%
- inhibition at 10 µM [2, 6]: ≥ 30%

Structure (SMILES): C[C@@H](O)CC(=O)CC(=O)SCCNC(=O)CCNC(=O)[C@H](O)C(C)(C)CO [Compound 42, (2R)-2,4-dihydroxy-N-[2-[(2-[[(5R)-5-hydroxy-3-oxohexanoyl]sulfanyl]ethyl)carbamoyl]ethyl]-3,3-dimethylbutanamide]
- activation at 10 µM [1]: ≥ 10%
- inhibition at 10 µM [2, 9]: ≥ 30%
- inhibition at 10 µM [2, 4]: ≥ 10%

Structure (SMILES): CC(=O)SCCNC(=O)CCNC(=O)[C@H](O)C(C)(C)COC(=O)CCC(=O)O [Compound 1242, (R)-12-hydroxy-13,13-dimethyl-2,7,11,16-tetraoxo-15-oxa-3-thia-6,10-diazanonadecan-19-oic acid]
- activation at 10 µM [1]: ≥ 10%

Structure (SMILES): CC(C)(CO)[C@@H](O)C(=O)NCCC(=O)NCCSC(=O)CCCN [Compound 370, (2R)—N-[2-([2-[(4-aminobutanoyl)sulfanyl]ethyl]carbamoyl)ethyl]-2,4-dihydroxy-3,3-dimethylbutanamide]
- activation at 50 µM (HepG2 cells): ≥ 30%
- activation at 10 µM ([3]; assay condition A (10 mM glucose, 2 mM L-glutamine, 1 mM pyruvate, 10% FBS), read-out: Increase in Maximal Respiratory Capacity AUC): ≥ 10%
- activation at 50 µM [3, 7]: ≥ 10%
- activation at 10 µM [3, 13]: ≥ 10%

Structure (SMILES): CC(C)(CO)[C@@H](O)C(=O)NCCC(=O)NCCSC(=O)CC(=O)CCC(=O)O [Compound 2, 6-[(2-[3-[(2R)-2,4-dihydroxy-3,3-dimethylbutanamido]propanamido]ethyl)sulfanyl]-4,6-dioxohexanoic acid]
- activation at 10 µM (HepG2 cells): ≥ 10%
- activation at 50 µM [3, 13]: ≥ 10%
- activation at 10 µM [1]: ≥ 10%
- inhibition at 10 µM [2, 8]: ≥ 10%
- inhibition at 10 µM [2, 12]: ≥ 30%
- inhibition at 10 µM [2, 5]: ≥ 10%
- inhibition at 10 µM [2, 6]: ≥ 30%

Structure (SMILES): COC(=O)CC(C(C)=O)C(=O)SCCNC(=O)CCNC(=O)[C@H](O)C(C)(C)CO (stereo partly drawn) [Compound 410]
- activation at 50 µM (HepG2 cells): ≥ 30%
- activation at 50 µM [3, 13]: ≥ 10%
- activation at 10 µM [1]: ≥ 10%
- inhibition at 10 µM [2, 12]: ≥ 30%
- inhibition at 10 µM ([2]; Fibroblast, MMA Tsi 5224, Assay Condition A, read-out: Decreased ROS by at least 10%): ≥ 10%
- inhibition at 10 µM [2, 5]: ≥ 10%
- inhibition at 10 µM [2, 6]: ≥ 30%

Structure (SMILES): CC[C@@H](O)CC(=O)SCCNC(=O)CCNC(=O)[C@H](O)C(C)(C)CO [Compound 1245, (2R)-2,4-dihydroxy-N-{2-[(2-{[(3R)-3-hydroxypentanoyl]sulfanyl}ethyl)carbamoyl]ethyl}-3,3-dimethylbutanamide]
- activation at 10 µM [1]: ≥ 10%
- inhibition at 10 µM [2, 10]: ≥ 10%
- inhibition at 10 µM [2, 11]: ≥ 30%

Structure (SMILES): CC(=O)SCCNC(=O)CCNC(=O)[C@H](O)C(C)(C)COC(=O)[C@@H](N)Cc1ccc(O)c(O)c1 [Compound 498, (3R)-3-[(2-[[2-(acetylsulfanyl)ethyl]carbamoyl]ethyl)carbamoyl]-3-hydroxy-2,2-dimethylpropyl (2S)-2-amino-3-(3,4-dihydroxyphenyl)propanoate]
- activation at 50 µM (HepG2 cells): ≥ 10%
- activation at 10 µM [3, 13]: ≥ 10%

Structure (SMILES): CC(=O)OCC(C)(C)[C@@H](O)C(=O)NCCC(=O)NCCSC(=O)CC(=O)CCC(=O)O [Compound 140, 6-[(2-[3-[(2R)-4-(acetyloxy)-2-hydroxy-3,3-dimethylbutanamido]propanamido]ethyl)sulfanyl]-4,6-dioxohexanoic acid]
- activation at 50 µM [3, 7]: ≥ 10%
- activation at 10 µM [1]: ≥ 10%
- inhibition at 10 µM ([2]; Fibroblast, Leigh GM13411, Assay Condition C, read-out: Decreased ROS by at least 30%): ≥ 30%
- inhibition at 10 µM [2, 4]: ≥ 10%

Structure (SMILES): CC(=O)OCC(C)(C)[C@@H](OC(C)=O)C(=O)NCCC(=O)NCCSC(C)=O [Compound 1264, (1R)-3-(acetyloxy)-1-[(2-[[2-(acetylsulfanyl)ethyl]carbamoyl]ethyl)carbamoyl]-2,2-dimethylpropyl acetate]
- activation at 50 µM (HepG2 cells): ≥ 20%
- activation at 10 µM [1]: ≥ 10%

Structure (SMILES): CCC(=O)CC(=O)SCCNC(=O)CCNC(=O)[C@H](O)C(C)(C)CO [Compound 382, (2R)-2,4-dihydroxy-3,3-dimethyl-N-[2-([2-[(3-oxopentanoyl)sulfanyl]ethyl]carbamoyl)ethyl]butanamide]
- activation at 50 µM (HepG2 cells): ≥ 30%
- activation at 10 µM [3, 13]: ≥ 10%
- activation at 10 µM [1]: ≥ 10%
- inhibition at 10 µM [2, 4]: ≥ 10%
- inhibition at 10 µM [2, 11]: ≥ 30%
- inhibition at 10 µM [2, 5]: ≥ 10%
- inhibition at 10 µM [2, 6]: ≥ 30%
